Measured values from patent US20080188478A1, “Compounds Useful In Therapy” (Pfizer Inc., priority 2005, published 2008).

Columns and labels:
human V1A receptor = human V1A receptor (Homo sapiens, UniProt P37288); experiment: V1A filter binding assay ([3H]-AVP binding to CHO-hV1A membranes); settings: screen 1.0, Ki by Cheng-Prusoff equation
Procedure: 1.0 V1A Filter Binding Assay
Receptor binding assays were performed on cellular membranes prepared from CHO cells stably expressing the human V1A receptor, (CHO-hV1A). The CHO-hV1A cell line was kindly provided under a licensing agreement by Marc Thibonnier, Dept. of Medicine, Case Western Reserve University School of Medicine, Cleveland, Ohio. CHO-hV1A cells were routinely maintained at 37° C. in humidified atmosphere with 5% CO2 in DMEM/Hams F12 nutrient mix supplemented with 10% fetal bovine serum, 2 mM L-glutamine, 15 mM HEPES and 400 μg/ml G418. For bulk production of cell pellets, adherent CHO-hV1A cells were grown to confluency of 90-100% in 850 cm^2 roller bottles containing a medium of DMEM/Hams F12 Nutrient Mix supplemented with 10% fetal bovine serum, 2 mM L-glutamine and 15 mM HEPES. Confluent CHO-hV1A cells were washed with phosphate-buffered saline (PBS), harvested into ice cold PBS and centrifuged at 1,000 rpm. Cell pellets were stored at −80° C. until use. When required, the cell pellets were thawed on ice and homogenised in membrane preparation buffer consisting of 50 mM Tris-HCl, pH 7.4, 5 mM MgCl2 and supplemented with a protease inhibitor cocktail, (Roche). The cell homogenate was centrifuged at 1000 rpm, 10 min, 4° C. and the supernatant was removed and stored on ice. The remaining pellet was homogenised and centrifuged as before. The supernatants were pooled and centrifuged at 25,000×g for 30 min at 4° C. The pellet was resuspended in freezing buffer consisting of 50 mM Tris-HCl, pH 7.4, 5 mM MgCl2 and 20% glycerol and stored in small aliquots at −80° C. until use. Protein concentration was determined using Bradford reagent and BSA as a standard.
Protein linearity, followed by saturation binding studies were performed on each new batch of membrane. A membrane concentration was chosen that gave specific binding on the linear portion of the curve. Saturation binding studies were then performed using various concentrations of [^3H]-arginine vasopressin, [^3H]-AVP (0.05 nM-100 nM) and the Kd and Bmax were determined. […] The plates were sealed and counted on a TopCount Microplate Scintillation Counter (Packard Instruments). Non-specific binding (NSB) was determined using 1 μM unlabelled d(CH2)5Tyr(Me)AVP ([β-mercapto-β,β-cyclopentamethylenepropionyl, 0-Me-Tyr^2, Arg^8]-vasopressin) (βMCPVP), (Sigma). The radioligand binding data was analysed using a four parameter logistic equation with the min forced to 0%. […] Specific binding was calculated by subtracting the mean NSB cpm from the mean Total cpm. For test compounds the amount of ligand bound to the receptor was expressed as % bound=(sample cpm−mean NSB cpm)/specific binding cpm×100. […]

Sequence of human V1A receptor (P37288 whole entry): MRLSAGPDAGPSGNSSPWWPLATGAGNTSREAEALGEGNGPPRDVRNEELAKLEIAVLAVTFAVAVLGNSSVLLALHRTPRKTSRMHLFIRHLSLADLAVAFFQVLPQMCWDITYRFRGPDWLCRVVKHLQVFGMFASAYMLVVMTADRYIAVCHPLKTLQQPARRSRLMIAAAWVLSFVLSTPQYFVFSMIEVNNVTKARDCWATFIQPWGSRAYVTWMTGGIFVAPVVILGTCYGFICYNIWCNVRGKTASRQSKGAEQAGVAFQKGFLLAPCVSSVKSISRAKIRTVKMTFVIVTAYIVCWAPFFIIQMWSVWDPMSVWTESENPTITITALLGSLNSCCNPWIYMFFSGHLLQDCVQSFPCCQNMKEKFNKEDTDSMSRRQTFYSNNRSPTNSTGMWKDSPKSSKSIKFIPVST

Structure (SMILES)	Ki (human V1A receptor) [nM]	melting point [°C]
O=c1oc2cccnc2n1C1CCN(c2nnc(Cn3nccn3)n2-c2ccc(Cl)cc2)CC1 [Example 7, 3-{1-[4-(4-chlorophenyl)-5-(2H-1,2,3-triazol-2-ylmethyl)-4H-1,2,4-triazol-3-yl]piperidin-4-yl}[1,3]oxazolo[4,5-b]pyridin-2(3H)-one]	1.1	
Cc1nnc(N2CCC(N3c4ccccc4N(C)S3(=O)=O)CC2)n1-c1ccc(Cl)cc1 [Example 18, 1-{1-[4-(4-Chlorophenyl)-5-methyl-4H-1,2,4-triazol-3-yl]piperidin-4-yl}-3-methyl-1,3-dihydro-2,1,3-benzothiadiazole 2,2-dioxide]		210 to 212

Further lines, results first:

Ki (human V1A receptor) [nM]	melting point [°C]	Structure (SMILES)
0.49		Cc1nnc(N2CCN(c3nsc4ccccc34)CC2)n1-c1ccc(Cl)cc1 [Example 20, 3-{4-[4-(4-Chlorophenyl)-5-methyl-4H-1,2,4-triazol-3-yl]piperazin-1-yl}-1,2-benzisothiazole]
0.79		FC(F)(F)c1nnc(N2CCN(c3nsc4ccccc34)CC2)n1-c1ccc(Cl)cc1 [Example 22, 3-{4-[4-(4-Chlorophenyl)-5-(trifluoromethyl)-4H-1,2,4-triazol-3-yl]piperazin-1-yl}-1,2-benzisothiazole]
1.04		Cc1nnc(C2CCN(c3noc4cccnc34)CC2)n1-c1ccc(Cl)cc1 [Example 29, 3-{4-[4-(4-Chlorophenyl)-5-methyl-4H-1,2,4-triazol-3-yl]piperidin-1-yl}isoxazolo[4,5-b]pyridine]
